Calls of active or inactive are those of the source.
What was measured:
[1] = target: T1, Polyadenylate-binding protein 1 (Homo sapiens, UniProt P11940); assay: PABP1 MLLE–PAM2 interaction inhibitors, dose response, miRNA deadenylation inhibitor project, biochemical, fluorescence polarization, Cy5-PAM2 peptide, secondary (AID 602260); format: functional; settings: read-out: IC50_Mean
[2] = target: T1, Polyadenylate-binding protein 1; assay: PABP1 MLLE–PAM2 binding inhibitor potency, dose response, biochemical, fluorescence polarization, FITC-PAM2 peptide (AID 602259); format: functional; settings: read-out: IC50_Mean
[3] = target: Luciferin 4-monooxygenase (Photinus pyralis, UniProt P08659); assay: firefly luciferase enzyme inhibitors, dose response, biochemical, luminescence (AID 1891)
[4] = Luminescence Cell-Based Dose Confirmation HTS to Identify Inhibitors of Platelet Dense Granule Release. [Related pubchem assays: 1663 (Primary HTS), 1678 (Summary of Project)]; format: functional
H9c2 = assay: cells; format: functional, cell-based; settings: Rattus norvegicus, H9c2, Myocardium;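 also: confirmatory concentration-response retest of ultra-high-throughput screening hits for modulation of myocardial damage; cell death induced by hydrogen peroxide oxidative stress; compound pretreatment for 60 min then peroxide exposure for 2 h; potency is for protecting the cells against peroxide damage rather than for killing them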
[5] = P. falciparum Dd2 growth inhibitors, dose response, SYBR Green, cherry-picked samples (AID 1159567); format: functional, cell-based
[6] = target: T2, Corticotropin-releasing factor receptor 2/Corticotropin-releasing factor-binding protein (Homo sapiens, UniProt P24387+Q13324); assay: activators of CRF receptor 2 with binding protein – uHTS hits, confirmation (AID 602473); format: functional; settings: read-out: EC50_Mean
T2 sequence (Q13324 whole entry): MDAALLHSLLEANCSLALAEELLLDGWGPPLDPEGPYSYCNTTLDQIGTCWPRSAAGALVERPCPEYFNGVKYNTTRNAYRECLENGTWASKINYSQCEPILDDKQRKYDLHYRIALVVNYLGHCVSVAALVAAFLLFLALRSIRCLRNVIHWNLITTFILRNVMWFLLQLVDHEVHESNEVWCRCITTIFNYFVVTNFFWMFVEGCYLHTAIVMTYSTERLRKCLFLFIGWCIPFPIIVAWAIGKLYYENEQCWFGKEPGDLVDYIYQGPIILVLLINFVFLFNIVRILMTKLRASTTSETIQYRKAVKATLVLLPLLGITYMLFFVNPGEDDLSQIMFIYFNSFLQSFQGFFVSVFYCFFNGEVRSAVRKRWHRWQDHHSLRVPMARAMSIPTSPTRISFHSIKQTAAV
T2 sequence (P24387 whole entry): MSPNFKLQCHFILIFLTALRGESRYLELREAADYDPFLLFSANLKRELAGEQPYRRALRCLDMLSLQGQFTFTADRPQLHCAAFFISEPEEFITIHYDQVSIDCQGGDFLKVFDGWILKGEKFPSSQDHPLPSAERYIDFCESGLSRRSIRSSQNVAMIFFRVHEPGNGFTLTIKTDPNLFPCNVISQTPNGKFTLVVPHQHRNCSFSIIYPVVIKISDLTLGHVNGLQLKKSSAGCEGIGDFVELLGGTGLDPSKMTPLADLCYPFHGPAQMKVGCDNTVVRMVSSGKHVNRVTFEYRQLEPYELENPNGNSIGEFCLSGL

Cytochrome P450 2C9 = Cytochrome P450 2C9 (Homo sapiens, UniProt P11712)
[7] = NIH-3T3 fibroblast cytotoxicity, dose response, cytotoxicity control, cell-based, fluorescence, Alamar Blue, secondary assay (AID 2327); format: functional;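 also: NIH-3T3 mouse fibroblasts cultured with fluconazole at 8 µg/mL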
[8] = C. albicans growth with fluconazole, confirmation, fluorescence, retest (AID 2467); format: functional, cell-based
[9] = Luminescence Cell-Based Dose Retest to Confirm Inhibitors of Cancer Stem Cells. [Related pubchem assays (depositor defined):AID2717, AID2721]; format: functional; settings: Homo sapiens
[10] = tested on: Streptococcus sp. 'group A'; assay: growth inhibition of control SK(-) GAS strain, dose response, counter-screen for streptokinase expression inhibitor project, luminescence, kanamycin, BacTiterGlo, confirmation (AID 1900); format: functional, organism-based; settings: Streptococcus sp. 'group A'
Streptokinase A = target: T3, Streptokinase A (Streptococcus pyogenes serotype M1, UniProt P10520); assay: S. pyogenes streptokinase expression inhibitors, potency, dose response, plasminogen activation absorbance, OD405 (AID 1914); format: functional, Streptococcus pyogenes M1 GAS;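 also: secreted streptokinase activity via plasminogen activation per viability signal from cell pellet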
T3 sequence (P10520 whole entry): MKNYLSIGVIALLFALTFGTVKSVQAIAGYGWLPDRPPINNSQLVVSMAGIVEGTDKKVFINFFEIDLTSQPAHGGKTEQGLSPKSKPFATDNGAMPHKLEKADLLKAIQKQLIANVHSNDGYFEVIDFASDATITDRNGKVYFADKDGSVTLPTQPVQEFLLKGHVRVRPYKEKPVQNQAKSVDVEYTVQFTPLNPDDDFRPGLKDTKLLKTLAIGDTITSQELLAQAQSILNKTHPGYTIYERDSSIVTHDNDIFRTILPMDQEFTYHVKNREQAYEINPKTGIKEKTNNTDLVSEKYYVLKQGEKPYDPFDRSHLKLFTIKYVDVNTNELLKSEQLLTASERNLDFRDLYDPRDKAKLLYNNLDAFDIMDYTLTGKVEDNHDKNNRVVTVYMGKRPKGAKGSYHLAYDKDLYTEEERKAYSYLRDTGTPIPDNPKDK

Streptococcus = assay: Group A Streptococcus viability loss, dose response, counter-screen for streptokinase expression inhibitor project, luminescence, BacTiterGlo (AID 1915); format: functional, organism-based; settings: Streptococcus;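 also: potency for reduction of bacterial viability or growth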
H4 = assay: Luminescence Cell-Based Dose Response HTS to Identify Activators of 5'UTR Stem-Loop Driven Prion Protein mRNA Translation in H4 Neuroglioblastoma Cells. [Related pubchem assays: 1829 (Project Summary), 1814 (Primary HTS)]; format: functional; settings: Homo sapiens
[11] = Luminescence Cell-Based Dose Response HTS to Identify Activators of Luciferase Translation or Activity in H4 […] Cells. [Related pubchem assays: 1829 (Project Summary), 1814 (Primary HTS)]; format: functional
[12] = Luminescence Cell-Based Dose Confirmation HTS to Identify Activators of 5'UTR Stem-Loop Driven Alpha-Synuclein mRNA Translation in H4 Neuroglioblastoma Cells. [Related pubchem assays: 1829 (Project Summary), 1814 (Primary HTS)]; format: functional
[13] = inhibitors of intracellular T. cruzi replication, confirmation, NIH3T3 host cells, beta-gal luminescence (AID 2044); format: functional, cell-based;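 also: intracellular parasites grown in NIH/3T3 mouse fibroblasts as host cells; luminescent beta-galactosidase reporter signal from transgenic T. cruzi replicating inside host cells; inhibitors lower the luminescence signal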
[14] = cytotoxicity toward NIH3T3 fibroblasts, dose response, counter-screen, cell-based, ATP luminescence, mouse fibroblasts (AID 2010); format: functional;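 also: cells exposed to compound for about 90 hours before reading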

Chain of Luciferin 4-monooxygenase (P08659 whole entry): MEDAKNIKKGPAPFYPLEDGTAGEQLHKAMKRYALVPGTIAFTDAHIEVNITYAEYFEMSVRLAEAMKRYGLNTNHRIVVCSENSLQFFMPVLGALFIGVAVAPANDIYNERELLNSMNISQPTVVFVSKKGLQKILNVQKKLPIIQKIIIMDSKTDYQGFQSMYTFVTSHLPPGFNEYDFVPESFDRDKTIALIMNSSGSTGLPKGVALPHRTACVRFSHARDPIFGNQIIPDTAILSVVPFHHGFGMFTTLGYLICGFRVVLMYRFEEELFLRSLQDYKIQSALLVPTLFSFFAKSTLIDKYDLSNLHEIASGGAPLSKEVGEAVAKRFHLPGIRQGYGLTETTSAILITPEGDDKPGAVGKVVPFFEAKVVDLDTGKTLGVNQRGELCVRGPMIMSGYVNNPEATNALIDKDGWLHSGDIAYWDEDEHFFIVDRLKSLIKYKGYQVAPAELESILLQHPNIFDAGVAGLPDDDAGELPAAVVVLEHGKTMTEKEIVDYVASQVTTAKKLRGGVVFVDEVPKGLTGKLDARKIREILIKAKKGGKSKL
T1 sequence (P11940 whole entry): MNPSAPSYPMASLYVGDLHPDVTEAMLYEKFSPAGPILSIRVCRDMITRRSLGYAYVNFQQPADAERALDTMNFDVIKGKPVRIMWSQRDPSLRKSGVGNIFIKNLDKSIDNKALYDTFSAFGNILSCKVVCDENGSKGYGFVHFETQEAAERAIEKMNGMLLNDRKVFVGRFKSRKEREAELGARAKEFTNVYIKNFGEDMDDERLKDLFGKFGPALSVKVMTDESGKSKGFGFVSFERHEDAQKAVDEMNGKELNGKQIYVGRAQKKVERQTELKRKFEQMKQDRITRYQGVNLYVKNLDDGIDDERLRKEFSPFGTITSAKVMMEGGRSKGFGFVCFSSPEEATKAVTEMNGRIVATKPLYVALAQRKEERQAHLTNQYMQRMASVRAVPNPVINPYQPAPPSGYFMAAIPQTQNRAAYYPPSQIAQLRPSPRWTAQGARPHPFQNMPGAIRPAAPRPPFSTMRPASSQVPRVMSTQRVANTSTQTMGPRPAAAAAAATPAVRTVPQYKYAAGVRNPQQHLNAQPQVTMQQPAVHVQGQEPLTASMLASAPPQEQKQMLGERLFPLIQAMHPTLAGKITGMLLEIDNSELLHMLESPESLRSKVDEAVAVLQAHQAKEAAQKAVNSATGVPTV
Chain of Cytochrome P450 2C9 (P11712 whole entry): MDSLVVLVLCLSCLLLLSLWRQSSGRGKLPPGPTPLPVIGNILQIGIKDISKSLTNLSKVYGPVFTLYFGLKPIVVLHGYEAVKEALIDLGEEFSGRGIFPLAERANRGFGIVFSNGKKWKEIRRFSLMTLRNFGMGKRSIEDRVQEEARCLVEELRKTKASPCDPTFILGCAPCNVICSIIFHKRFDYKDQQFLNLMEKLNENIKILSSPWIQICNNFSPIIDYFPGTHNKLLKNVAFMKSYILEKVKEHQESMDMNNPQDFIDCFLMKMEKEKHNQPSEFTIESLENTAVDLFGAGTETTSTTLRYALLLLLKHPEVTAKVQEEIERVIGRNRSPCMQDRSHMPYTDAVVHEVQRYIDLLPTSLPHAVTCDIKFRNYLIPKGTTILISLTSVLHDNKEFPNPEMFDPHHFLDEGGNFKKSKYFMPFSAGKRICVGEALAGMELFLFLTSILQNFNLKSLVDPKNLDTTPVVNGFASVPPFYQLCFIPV

COc1ccc(OC)c(S(=O)(=O)N2CCN(C(=O)c3cc(C4CC4)nn3-c3ccccc3)CC2)c1
IC50 [1]: > 66 µM (inactive)
IC50 [2]: > 66 µM (inactive)

NC(=NOC(=O)c1ccccc1Cl)c1nonc1N
EC50 [3]: 1.11 µM (active)
EC50 [4]: 4.54 µM (active)

CC1CCN(C(=O)COC(=O)c2nnc(O)c3ccccc23)CC1
IC50 (H9c2): > 79 µM (inactive)

COc1ccc(S(=O)(=O)N[C@@H]2CC[C@H](CCn3cc(-c4ccccc4F)nn3)O[C@@H]2CO)cc1
AC50 [5]: 8.67 µM (active)

CCc1nc(NC(C)C)c2oc3ccccc3c2n1
EC50 [3]: > 112 µM (not active)
EC50 [4]: > 112 µM (not active)

CC(=O)c1cccc(NC(=O)COC(=O)[C@@H](NC(=O)OCc2ccccc2)C(C)C)c1
EC50 [3]: > 112 µM (not active)
EC50 [4]: > 112 µM (not active)

COC(=O)c1sc(NC(=O)c2c(C)noc2C)nc1C
EC50 [3]: 30.6 µM (active)
EC50 [4]: > 112 µM (not active)

O=C(COc1ccccc1F)Nc1nc(-c2ccccn2)cs1
IC50 (H9c2): > 79 µM (inactive)

COc1ccc2c3c([nH]c2c1)[C@@H](CO)N(Cc1ccccc1F)CC31CCN(C(=O)C2CCOCC2)CC1
AC50 [5]: 6.46 µM (active)

Cc1ccc(O)c(NC(=S)NC(=O)/C=C/c2ccccc2)c1
IC50 [1]: > 66 µM (inactive)
IC50 [2]: > 66 µM (inactive)

C/C(=N\NC(=O)c1cccnc1)c1ccc(OC2OCCOC2Oc2ccc(/C(C)=N/NC(=O)c3cccnc3)cc2)cc1 (stereo unspecified)
IC50 (H9c2): > 79 µM (inactive)

CCOc1ccccc1-c1nc(C(N)=O)c2nc(O)n(-c3cccc(C)c3)c2n1
EC50 [3]: > 112 µM (not active)
EC50 [4]: > 112 µM (not active)

O=C(CC1Oc2ccccc2NC1=O)NC1CC1 (stereo unspecified)
EC50 [3]: > 112 µM (not active)
EC50 [4]: > 112 µM (not active)

O=Nc1c(O)n(Cc2c(Cl)cccc2Cl)c2ccccc12
EC50 [3]: > 112 µM (not active)
EC50 [6]: 4.67 µM (active)
EC50 [4]: > 112 µM (not active)

Cc1nn2c(nc(O)c3ccccc32)c1C=O
AC50 (Cytochrome P450 2C9): 15.8 µM (inconclusive)
EC50 [7]: > 160 µM (inactive)
EC50 [8]: 2.16 µM (active)

COc1ccc(CN(C)C(=O)C(Cc2ccccc2)NC(=O)c2ccccc2)cc1F (stereo unspecified)
IC50 (H9c2): > 79 µM (inactive)

COc1ccc2nc(O)c(CN(Cc3ccco3)Cc3nnnn3Cc3ccccc3)cc2c1
IC50 (H9c2): > 79 µM (inactive)

O=C(c1ccc2c(c1)OCO2)N1CCC2(CC1)Oc1ccc(Cl)cc1C(=O)C21CC(c2cccnc2)=NO1 (stereo unspecified)
EC50 [7]: > 150 µM (inactive)
EC50 [8]: 2.08 µM (active)

CC1CCC2C(=O)N(c3ccc(NC4CCCCC4)c([N+](=O)[O-])c3)C(=O)C2C1 (stereo unspecified)
AC50 [9]: < 0.16 µM (active)

CC1CCN(CCCNC(=O)c2nnc(O)c3ccccc23)CC1
IC50 (H9c2): 48.9 µM (inactive)

C=CCn1c[n+](CC(=O)c2ccc(Br)s2)c2ccccc21
EC50 [7]: > 160 µM (inactive)
EC50 [8]: > 38 µM (not active)

COc1ccc(/C=C/C(=O)NC(=S)Nc2ccc(S(=O)(=O)Nc3nccnc3OC)cc2)cc1
IC50 [1]: > 66 µM (inactive)
IC50 [2]: > 66 µM (inactive)

Fc1ccc(-[n+]2nc(Nc3ccccc3)sc2-c2cccc(Cl)c2Cl)cc1
IC50 [1]: > 66 µM (inactive)
IC50 [2]: > 66 µM (inactive)

CNC(=S)N/N=C/c1cn(Cc2ccc(C)cc2)c2ccccc12
EC50 [10]: 5.29 µM (active)
AC50 [9]: 3.07 µM (active)
EC50 (Streptokinase A): 74.1 µM (active)
EC50 (Streptococcus): 28 µM (active)

COc1cccc(NC(=O)CN(C)C(=O)CCCc2nc(O)c3ccccc3n2)c1
IC50 (H9c2): > 79 µM (inactive)

CN(C)S(=O)(=O)c1cccc(NC(=O)COC(=O)c2ccc([N+](=O)[O-])o2)c1
IC50 (H9c2): 10.3 µM (active)

Cc1[nH]c2ccccc2c1C(Nc1nccs1)c1ccncc1 (stereo unspecified)
EC50 [3]: > 112 µM (not active)
EC50 [4]: 14.6 µM (active)

CO[C@@H]1CN(C)C(=O)c2cc(NC(=O)Nc3cccc(Cl)c3)ccc2OC[C@@H](C)NC[C@@H]1C
AC50 [5]: 9.36 µM (active)

Cc1nnc(NC(=O)c2c(-c3ccccc3Cl)noc2C)s1
EC50 [7]: 32.1 µM (active)
EC50 [8]: 4.42 µM (active)

Cc1nn(-c2ccccc2)c(C)c1/C=N/NC(=O)c1cc(C2CC2)[nH]n1
IC50 (H9c2): > 79 µM (inactive)

CCc1ccc(CNC(=O)C2CCN(c3nnc(C)c4c(C)n(-c5ccc(C)cc5)nc34)CC2)cc1
AC50 [9]: 3.85 µM (active)

CCOc1cc(C2C3=C(O)CCCC3=NC3=C2C(=O)CCC3)ccc1OCCO (stereo unspecified)
IC50 [1]: > 66 µM (inactive)
IC50 [2]: > 66 µM (inactive)

COc1ccc(NC(=O)N(C)C[C@H]2OCc3ccccc3-c3c(n(C)c4ccccc34)C(=O)N([C@H](C)CO)C[C@@H]2C)c(OC)c1
AC50 [5]: 7.42 µM (active)

O=C(CSc1ncn(-c2ccccc2)n1)c1cccs1
EC50 (H4): > 120 µM (not active)
EC50 [11]: 25.5 µM (active)
IC50 [1]: > 66 µM (inactive)
IC50 [2]: > 66 µM (inactive)
EC50 [12]: 0.255 µM (active)

N#CC1=C(N)N=C(SCc2cccc3ccccc23)C(C(N)=O)C12CCCCC2 (stereo unspecified)
IC50 [1]: > 66 µM (inactive)
IC50 [2]: > 66 µM (inactive)

CCNS(=O)(=O)c1ccc(NC(=O)Nc2cccc(C(F)(F)F)c2)cc1
EC50 [13]: 3.63 µM (active)
AC50 [9]: 7.58 µM (active)
EC50 [14]: > 60 µM (not active)

COc1ccc(-n2c(S)nnc2-c2cccc(C)c2[N+](=O)[O-])cc1
EC50 [7]: > 150 µM (inactive)
EC50 [8]: 1.7 µM (active)

Cc1ccc(NC(S)=Nc2cccc3cnccc23)cc1C
AC50 [9]: 62.1 µM (active)

COc1ccc2nc(O)c(CN(CCc3ccccc3)Cc3nnnn3CC3CCCO3)cc2c1 (stereo unspecified)
IC50 (H9c2): 14.6 µM (active)

O=C(CSC1=NCCS1)Nc1ccccc1F
IC50 [1]: > 66 µM (inactive)
IC50 [2]: > 66 µM (inactive)

CC(C)C(NC(=O)c1ccccc1)C(=O)NC1=NCCS1 (stereo unspecified)
IC50 [1]: > 66 µM (inactive)
IC50 [2]: > 66 µM (inactive)

O=C1CN(S(=O)(=O)c2ccccc2)C[C@H]2[C@H](c3ccc(C#CCc4ccccc4)cc3)[C@@H](CO)N12
AC50 [5]: 4.06 µM (active)

CC(=O)Oc1ccc(-c2csc(Nc3ccc(Cl)cn3)n2)cc1
AC50 [9]: 5.14 µM (active)

O=C(N/N=C/c1ccncc1)c1ccc(COc2cccc3cccnc23)cc1
IC50 (H9c2): 14.3 µM (active)

CNC(S)=NCCc1ccc(OC)c(OC)c1
EC50 [3]: > 112 µM (not active)
EC50 [4]: > 112 µM (not active)

Cn1cccc1/C=C1\SC(=S)N(Nc2ccccc2)C1=O
EC50 [13]: 2.67 µM (active)
AC50 [9]: 0.978 µM (active)
EC50 [14]: 3.85 µM (active)

Reference: ChEMBL document CHEMBL1201862, “PubChem BioAssay data set” (2004)
